63 compounds from PubChem BioAssay AID463204 (Broad Institute, 2010) can be followed below.

The subject of the assay is S. cerevisiae Mot1-301 ts growth rescue, BacTiter-Glo ATP luminescence. The assay is described as follows: growth rescue of Mot1-301 ts yeast, confirmation, SUMOylation pathway inhibitor project, whole organism, S. cerevisiae, Mot1-301 ts mutant, luminescence, dose retest (AID 463204).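 Note: growth at restrictive 38.5 degrees C of Mot1-301 OY566 strain; actives raise luminescence by restoring growth of the ts mutant at high temperature.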

Structures are written as SMILES. Calls of active or inactive are those of the source.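 Rule for the calls: active = AC50 no more than ten times the top concentration tested, that is within one log above it; inconclusive = flat curve fit with activity between 30% and 70%, or invalid poor fit; inactive = AC50 beyond ten times the top tested dose.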

A word on the AC50: it is the midpoint of the concentration-response curve, whichever way the signal moves. For the compound `CC1Cc2ccccc2N1C(=O)Cn1c(=O)cc(O)c2ccccc21` (stereo not drawn), the AC50 is > 42 µM (inactive).

As to `CCOC(=O)N1CCN(S(=O)(=O)c2ccc(C)c(C)c2)CC1`, the AC50 is > 42 µM (inactive). With `O=S1(=O)CC(N2CCCCC2)C(N2CCCCC2)C1` (stereo not drawn) the figure was > 42 µM (inactive); with `CC(C)c1cccc(OCCCCN(C)C)c1`, > 42 µM (inactive).

On to `Cc1noc(C)c1Cc1ccc(O)cc1`, for which the AC50 is > 42 µM (inactive).

As for `COc1ccccc1NC(=O)Nc1ccc(Cl)c(S(=O)(=O)Nc2ccccc2OC)c1`, the AC50 is > 42 µM (inactive). For `CCC(C)[C@H](N)c1nnc(SCC(=O)Nc2cccc(Cl)c2)o1` (stereo partly drawn), the AC50 is > 42 µM (inactive). With `CS(=O)(=O)N(CC(=O)Nc1ccccc1C(=O)N1CCCC1)c1ccc2c(c1)OCO2` the figure was > 42 µM (inactive); with `CCN1C(=NCC(C)C)N[C@@H](c2cccc(C(F)(F)F)c2)C(C(=O)OC)=C1C`, > 42 µM (inactive); with `COc1cc(C(=O)N/N=C/c2ccccn2)cc(OC)c1OC`, > 42 µM (inactive).

On to `COc1cc(/C=N/NC(=O)c2cccnc2)ccc1OCC(=O)N1CCOCC1`, for which the AC50 was > 42 µM (inactive). As to `C=CCn1c(-c2ccc(OC)cc2)nc2ccccc21`, the AC50 was > 42 µM (inactive).

In the case of `Cc1ccc(-n2c(SCC(=O)N(C)C3CCS(=O)(=O)C3)nc3ccccc3c2=O)cc1` (stereo not drawn), the AC50 is > 42 µM (inactive). Regarding `COC(=O)[C@@H](NC(=O)Nc1ccc(S(N)(=O)=O)cc1)C(C)C`, the AC50 was > 42 µM (inactive). Take `Cc1ccccc1Nc1c([N+](=O)[O-])ccc2c1=NC1(CCCCC1)N=2`: the AC50 was > 42 µM (inactive). With `C=CC(=O)NC1CC2CCC1(C)C2(C)C` (stereo not drawn) the figure was > 42 µM (inactive); with `CSc1nnc2c3cc(C)ccc3n(Cc3ccccc3)c2n1`, > 42 µM (inactive).

In the case of `O=C(NCC1CCCO1)C1CC(c2ccc(Cl)c(Cl)c2)=NO1` (stereo not drawn), the AC50 was > 42 µM (inactive).

Turning to `C[C@@]12C(=O)Nc3cc(F)ccc3C(=O)N1[C@H]1c3ccccc3OC[C@@H]1[C@@H]2c1ccccc1`, the AC50 was 5.7 µM. With `COc1ccc(S(=O)(=O)N2CCCOC2CNC(=O)C(=O)NCCCN2CCOCC2)cc1C` (stereo not drawn) the figure was > 42 µM (inactive); with `CCOC(=O)c1c(/N=C/C2C(=O)CCCC2=O)sc2c1CCCC2`, > 42 µM (inactive); with `O=c1[nH]c(O)c(N=Nc2cc([N+](=O)[O-])ccc2O)c(=O)[nH]1`, > 42 µM (inactive). As for `N#Cc1c(NC(=O)c2ccc([N+](=O)[O-])o2)sc2c1CCC2`, the AC50 was 40.1 µM. Turning to `Cc1ccc(N=c2ssnc2Cl)cc1`, the half-maximal activity concentration (AC50) is 3.13 µM. With `Cc1ccc(C(=O)NCCCNC(=O)c2ccc(C)nc2)cc1`, the AC50 is > 42 µM (inactive). Consider `COC(=O)C1C2C=CC3(CN(CCc4ccccc4)C(=O)C13)O2` (stereo not drawn), for which the AC50 was > 21 µM (inactive). For `O=C(N=C1SC2CS(=O)(=O)CC2N1c1ccc(F)c(Cl)c1)C1CC1` (stereo not drawn), the AC50 was > 42 µM (inactive).

On to `O=C(NC(=S)Nc1ccccc1N1CCCC1)c1ccc([N+](=O)[O-])cc1`, for which the AC50 is > 42 µM (inactive). For the compound `COc1cccc(-c2nn(-c3ccccc3)cc2/C=C(/NC(=O)c2ccccc2)C(=O)O)c1`, the AC50 was > 42 µM (inactive). With `O=C(NC1CCCCC1)N(Cc1cc2cc3c(cc2[nH]c1=O)OCCO3)C1CCCCC1` the figure was > 42 µM (inactive); with `CN1C(=O)C(O)(CC(=O)c2ccccc2O)c2cc(Br)ccc21` (stereo not drawn), > 42 µM (inactive); with `COc1cc(CNCc2ccc3c(c2)OCO3)c([N+](=O)[O-])cc1OC`, > 42 µM (inactive). Consider `Nc1cccc2c1C(=O)N(c1ccccc1)C2=O`, for which the AC50 was > 42 µM (inactive). In the case of `Cc1ccccc1CSc1n[nH]c(NS(=O)(=O)c2ccccc2)n1`, the AC50 is > 21 µM (inactive). For `CCN1C(=S)N[C@@H](c2cccs2)C(C(=O)OC)=C1C`, the AC50 is > 42 µM (inactive). Turning to `Cc1cc(Oc2cc(NN3CCCCC3)c([N+](=O)[O-])cc2[N+](=O)[O-])ccc1[N+](=O)[O-]`, the AC50 was > 42 µM (inactive). With `CCOC(=O)c1cnc2c(OC)cccc2c1N1CCN(c2ccccc2OC)CC1` the figure was > 42 µM (inactive); with `COc1ccccc1NC(=O)COC(=O)CC(C)(C)CC1=NS(=O)(=O)c2ccccc2N1`, > 42 µM (inactive); with `COc1ccccc1CNCc1cc(OC)c(OC)c(OC)c1`, > 42 µM (inactive). Turning to `COc1cccc(-n2c(SCC(=O)NC3CCCCC3)nc3n[nH]c(C)c3c2=N)c1`, the AC50 is > 42 µM (inactive). With `CCN1CCCC1CN(Cc1cc2ccc(C)cc2[nH]c1=O)C(=S)Nc1ccccc1C(=O)OC` (stereo not drawn) the figure was > 42 µM (inactive); with `NC(=O)CC(NC(=O)Cc1cccc2ccccc12)c1ccc(NCCCN2CCCC2=O)c([N+](=O)[O-])c1` (stereo not drawn), > 42 µM (inactive); with `Nc1ccc(N2CCN(c3ccc(F)cc3)CC2)cc1`, > 42 µM (inactive). With `Cc1cc2c3c(c1)C1(SCC(=O)N1c1ccc(F)cc1)C(=O)N3C(C)(C)CC2C` (stereo not drawn) the figure was 6.97 µM. As for `COc1cc(S(=O)(=O)NC2CCCC2)c(OC)cc1C`, the AC50 is > 42 µM (inactive).

For the compound `CCCCN(C(=O)C1=COCCO1)c1c(N)n(Cc2ccccc2)c(=O)[nH]c1=O`, the AC50 is > 42 µM (inactive). For the compound `CCOc1ccccc1CN1CCN(Cc2ccon2)CC1CCO` (stereo not drawn), the AC50 is > 42 µM (inactive). With `N#C/C(=C\c1ccc(O)c(O)c1)C(=O)Nc1ccccc1` the figure was > 42 µM (inactive). With `CCOC(=O)C1=Nc2ccccc2C1=[N+]=[N-]` the figure was 36.7 µM. With `Cc1ccc(C(=O)NNc2ncnc3c2cnn3C)cc1` the figure was > 42 µM (inactive). For the compound `COc1ccc(C(=O)Sc2ccc(Cl)cc2)cc1OC`, the AC50 was > 42 µM (inactive). `CC(=O)Nc1nn(C)c2nc3ccc(C)cc3cc12`: the AC50 is > 42 µM (inactive).

On to `O=C(O)CCc1ccc(-c2ccccc2)n1NC(=O)c1cccs1`, for which the AC50 was > 42 µM (inactive). On to `O=C(CSc1ncnc2nc[nH]c12)Nc1ccccc1C(F)(F)F`, for which the AC50 was > 42 µM (inactive). In the case of `COC(=O)c1ccc(SCC(=O)N2CCC(C)CC2)c([N+](=O)[O-])c1`, the AC50 is > 42 µM (inactive). With `CCCCn1c(N)c(N(CCOC)C(=O)c2cnccn2)c(=O)[nH]c1=O` the figure was > 42 µM (inactive). With `O=C(/C=C/c1ccc(Cl)cc1Cl)Nc1cccc(S(=O)(=O)NC2=NCCCCC2)c1` the figure was > 42 µM (inactive); with `CC1CCN(C(=O)c2[nH]cnc2C(=O)NCC(=O)OCc2ccccc2)CC1`, > 42 µM (inactive); with `O=c1[nH]cnc2cc(Cl)ccc12`, > 21 µM (inactive). For the compound `Cc1nn(CC(N)=O)c(=O)c2ccccc12`, the AC50 is > 42 µM (inactive).

Turning to `COc1ccc(C2C(C(=O)Nc3cc(OC)c(OC)c(OC)c3)c3ccccc3C(=O)N2C)cc1` (stereo not drawn), the AC50 was > 42 µM (inactive). With `O=C(CCCC(=O)N(CC(=O)NC1CCCC1)c1cccc(F)c1)Nc1ccccn1` the figure was > 42 µM (inactive).

In the case of `Cc1cc(OCC(=O)NCC2CCC(C(=O)O)CC2)c2c(C)c(C)c(=O)oc2c1` (stereo not drawn), the AC50 was > 42 µM (inactive).
